From patent US8871789B2, “Method of preventing or treating viral infection” (The United States of America, as represented by the …, priority 2010, dated 2014) come the findings set out here.

The structures appear in SMILES notation.

The target in the first test is T1, JMJD2E (Homo sapiens, UniProt B2RXH2).
T1 sequence (B2RXH2 1-506): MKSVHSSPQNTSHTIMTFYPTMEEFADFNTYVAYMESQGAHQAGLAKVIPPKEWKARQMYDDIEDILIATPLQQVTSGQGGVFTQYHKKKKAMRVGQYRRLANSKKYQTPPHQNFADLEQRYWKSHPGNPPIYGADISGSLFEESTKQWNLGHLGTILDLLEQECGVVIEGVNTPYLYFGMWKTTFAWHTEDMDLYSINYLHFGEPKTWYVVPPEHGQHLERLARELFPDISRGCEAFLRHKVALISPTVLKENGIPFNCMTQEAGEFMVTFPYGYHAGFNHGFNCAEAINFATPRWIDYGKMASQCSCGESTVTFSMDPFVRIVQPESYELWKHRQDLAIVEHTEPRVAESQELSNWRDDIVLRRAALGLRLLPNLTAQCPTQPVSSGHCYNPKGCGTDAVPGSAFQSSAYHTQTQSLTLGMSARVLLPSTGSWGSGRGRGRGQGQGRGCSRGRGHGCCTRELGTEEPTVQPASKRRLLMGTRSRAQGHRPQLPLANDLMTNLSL
As to the kind of experiment: AlphaLISA assay, JMJD2E histone demethylase inhibition. The format is biochemical.
Conditions: not given
(In general: Alpha assays give light when donor and acceptor beads are brought close together.)
The IC50 is the concentration needed to halve the response being measured. Consider `O=C(O)c1ccc(O)c2ncc(NC3CCNC3)cc12` (stereo not shown) [Compound 15], for which the IC50 is 1.76 µM.
Same read-out and setting: with `O=C(O)c1ccc(O)c2ncc(N3CC4CNCC4C3)cc12` (stereo not shown) [Compound 17] the figure was 1.47 µM.
Still for that read-out and setting: the figure for `O=C(O)c1ccc(O)c2ncc(C3CCNCC3)cc12` [Compound 12] is 1.33 µM; for `O=C(O)c1ccc(O)c2ncc(N3CCOCC3)cc12` [Compound 11] it is 1.74 µM; for `O=C(O)c1ccc(O)c2ncc(N3CCCC3)cc12` [Compound 14] it is 2.24 µM.
The same measure, in the same setting: with `N[C@@H]1CCN(c2cnc3c(O)ccc(C(=O)O)c3c2)C1` [Compound 16] the figure was 1.17 µM; with `CN1CCN(c2cnc3c(O)ccc(C(=O)O)c3c2)CC1` [Compound 10], 2.25 µM; with `NC(=O)c1cccc(-c2cnc3c(O)ccc(C(=O)O)c3c2)c1` [Compound 28], 4.9 µM.
Consider `NC1CCN(c2cnc3c(O)ccc(C(=O)O)c3c2)CC1` [Compound 13], for which the IC50 came out at 1.57 µM.

The same test, now with this note: Table 2; JMJD2E; AlphaLISA, in triplicate; read-out: IC50.
With `O=C(c1ccc(-c2cc(O)c3ncccc3c2)cc1)N1CCNCC1` [Compound 5], the IC50 amounted to 1.62 µM.
On the same count and under the same terms, with `CN1CCN(C(=O)c2cccc(-c3cc(O)c4ncccc4c3)c2)CC1` [Compound 6] the figure was 4.27 µM; with `O=C(NCCCN1CCNCC1)c1cccc(-c2cc(O)c3ncccc3c2)c1` [Compound 7], 1.24 µM; with `O=C(O)c1ccnc2c(O)cccc12` [Compound 2], 3.07 µM.
Same read-out and setting: the figure for `CN(C)CC1CCN(C2CCN(C(=O)c3cccc(-c4cc(O)c5ncccc5c4)c3)CC2)CC1` [Compound 8] is 0.99 µM.
On the same count and under the same terms, with `CN(C)CCCN1CCCN(C(=O)c2cccc(-c3cc(O)c4ncccc4c3)c2)C1` [Compound 9] the figure was 1.52 µM; with `CN(C)CCCNC(=O)c1ccc(-c2cnc3c(O)cccc3c2)cc1` [Compound 3], 12 µM.

Still in this test, the particulars now being: Table 3; JMJD2E; AlphaLISA, in triplicate; read-out: IC50.
With `O=C(O)c1ccc(O)c2ncc(NCC3CCCN(CCc4ccccc4)C3)cc12` (stereo not shown) [Compound 21], the IC50 was 2.1 µM.
Consider `O=C(O)c1ccc(O)c2ncc(N3CCN(Cc4ccccc4)CC3)cc12` [Compound 18], for which the IC50 came out at 4.98 µM.
Still for that read-out and setting: with `CN(C)CCCNC(=O)c1ccc(-c2cnc3c(O)ccc(C(=O)O)c3c2)cc1` [Compound 25] the figure was 1.41 µM; with `O=C(O)c1ccc(O)c2ncc(N3CCCN(CCCc4ccncc4)CC3)cc12` [Compound 27], 1.71 µM; with `CN1CCN(C(=O)c2ccc(-c3cnc4c(O)ccc(C(=O)O)c4c3)cc2)CC1` [Compound 24], 4.63 µM.
The same measure, in the same setting: the figure for `O=C(O)c1ccc(O)c2ncc(-c3cccc(N4CCOCC4)c3)cc12` [Compound 20] is 5.11 µM.
On the same count and under the same terms, the figure for `O=C(O)c1ccc(O)c2ncc(-c3ccc(N4CCOCC4)cc3)cc12` [Compound 19] is 4.18 µM.
`O=C(O)c1ccc(O)c2ncc(N3CCCCC3CCc3ccccn3)cc12` (stereo not shown) [Compound 22]: the IC50 was 4.66 µM.
The same measure, in the same setting: with `O=C(O)c1ccc(O)c2ncc(N3CCCN(C4CCCC4)CC3)cc12` [Compound 26] the figure was 2.08 µM; with `O=C(O)c1ccc(O)c2ncc(-c3ccc(C(=O)N4CCNCC4)cc3)cc12` [Compound 23], 3.61 µM.

The next test concerns HSV-1.
Assay: not given
In kind it is cell-based, Balb/c mice. Conditions: 2 mM DMOG, 2 mM TCP or ACV, 48 hours; FIG. 11. On the procedure: FIG. 18 is a dot plot showing latently infected ganglia that were explanted in the presence of DMSO, ACV (100 mM), or ML324 (50 mM) for 48 hrs. Viral yields were determined from one half of each ganglia at 48 hrs (DMSO, ACV, ML324) and from the other half of each ganglia after drug reversal for an additional 72 hrs (ACV-R, ML324-R) [Wilcoxon matched pairs signed rank test, ACV vs ACV-R n=8, ML324 vs ML324-R n=10]. Data are means±SEM.
FIG. 19 is a dot plot showing viral yields from HSV-1 latently infected trigeminal ganglia that were explanted in the presence of DMSO, or 2 mM DMOG or 50 mM ML324 for 48 hours (DMSO versus DMOG: P=0.0015, Wilcoxon matched-pairs signed rank test; n=12; DMSO versus ML324: P<0.0001; n=20). Data are means±SEM.
Viral yields decrease from HSV-1 latently infected ganglia explanted in the presence of LSD1 or JMJD2 inhibitors (FIG. 11). Balb/c mice were infected with 5×10^6 PFU HSV-1 (strain F) per eye after corneal scarification. Latently infected mice were sacrificed 45 days post clearance of the primary infection and trigeminal ganglia were rapidly explanted into culture in the presence of 2 mM DMOG, 2 mM TCP, or control (DMSO or ACV, acyclovir) for 48 hours. Post explant incubation, the ganglia were homogenized and briefly sonicated. The reactivated viral yield of each ganglia was determined by titering the clarified supernatant on Vero cells. Statistical comparisons were made using Wilcoxon signed rank test (paired ganglia) with a statistical significance of <0.05. Each data point was the result of a single ganglia divided and treated in the presence and absence of DMSO and DMOG or DMSO and TCP. Therefore, a Wilcoxon signed rank test was used to assess differences between each treated and untreated sample. The significant difference between DMSO control and DMOG was p=0.0018. This test used an exact p-value for small sample sizes with an a level of 0.05. n=20. Analyses were made using Prism (V5.0a) and are expressed as the mean+/−s.e.m.
With `N[C@@H]1C[C@H]1c1ccccc1` (racemic) [TCP, tranylcypromine], the “viral yield from explanted latently infected ganglia” value is “decreases”.
In the case of `Nc1nc2c(ncn2COCCO)c(=O)[nH]1` [ACV, acyclovir, reference compound], the “viral yield from explanted latently infected ganglia” value is given as “No viral yields”.

The subject of a further test is HSV-1.
Assay: not given
In kind it is cell-based, mouse. As to conditions: 100 mM ACV or 50 mM ML324, 48 hours.
For the molecule `Nc1nc2c(ncn2COCCO)c(=O)[nH]1` [ACV, acyclovir, reference compound], the “isolated UL29+ neurons relative to DMSO” value is recorded as “reduced number”.

For another test, the system named is HSV-1. As to the kind of experiment: Plaque assay of Vero cells infected with HSV-1. The format is cell-based. Further details: # Plaques: dose or concentration left out as unconfirmed. As to conditions: MOI .001; 12 hours infection, then ACV or ML324 for 48 hours. The procedure: ML324 was ˜75-fold more efficient than DMOG. Additionally, ML324 (i) reduced viral yields in a dose-dependent manner (˜5 logs at 50 mM, FIG. 14); (ii) blocked viral IE gene transcription and reduced viral yields when cells were infected at high multiplicity of infection (MOI; FIGS. 15 and 16); and (iii) suppressed IE gene transcription, even when added at times after infection (>50% reduction at 2 hours after infection; FIG. 17). As further evidence for the efficacy of ML324, cells were infected with HSV to allow for a productive cycle of infection, followed by treatment with DMSO, ACV, or ML324.
On to `Nc1nc2c(ncn2COCCO)c(=O)[nH]1` [ACV, acyclovir, reference compound], for which the “# Plaques” value stood at 1.

The test is the same for the next values; noted with them: MOI .01; 12 hours infection, then ACV or ML324 for 48 hours.
Consider `Nc1nc2c(ncn2COCCO)c(=O)[nH]1` [ACV, acyclovir, reference compound], for which the “# Plaques” value is 8.
